Data set [1] relates to Human whole blood stimulated with a TLR2 agonist (lipoteichoic acid), IL-6 levels. As to the kind of experiment: IRAK4 Whole Blood Assay. It counts as cell-based. The settings on record: lipoteichoic acid 10 μg/mL. The procedure, abridged: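 IL-6 was quantified by cytometric bead assay in supernatants of human blood (ACD-A) stimulated for 5 h with lipoteichoic acid at 10 μg/mL final. Compound exposure preceded stimulation for 60 min at 37 °C, 5% CO2.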

Data set [2] relates to Caco-2 cells. The data set can be described thus: Caco-2 Permeability Assay. It counts as in vitro ADME. The settings on record: test compound 3 μM. Summed up: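 Bidirectional permeability measured over 2 h at 37° C, compound dosed at 3 μM in the donor compartment (apical for absorptive, basolateral for secretive) with plain buffer as receiver.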
For data set [3], the target named is IRAK4 (Homo sapiens (Human), UniProt Q9NWZ3). As to the kind of experiment: IRAK4 Inhibition Assay. It counts as biochemical. The settings on record: ATP 500 μM; IRAK4 0.6 nM. The procedure, abridged:
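Mobility-shift kinase assay: 0.6 nM IRAK4, 500 μM ATP, 1.5 μM fluorescent peptide, 60 min, room temperature. Percent inhibition was normalised between enzyme-free and DMSO-only wells.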

Data on five molecules can be found in patent publication US10294229B2, “Heteroaryl substituted aminopyridine compounds” (BRISTOL-MYERS SQUIBB COMPANY, priority 2015, dated 2019).

What is called EC50 is the concentration needed to bring the measured effect to its halfway point. The low end stands for higher potency in that assay, the high end for lower potency in that assay. The term IC50 denotes the concentration that gives 50% inhibition.

Chain of IRAK4 (Q9NWZ3 whole entry, species assumed): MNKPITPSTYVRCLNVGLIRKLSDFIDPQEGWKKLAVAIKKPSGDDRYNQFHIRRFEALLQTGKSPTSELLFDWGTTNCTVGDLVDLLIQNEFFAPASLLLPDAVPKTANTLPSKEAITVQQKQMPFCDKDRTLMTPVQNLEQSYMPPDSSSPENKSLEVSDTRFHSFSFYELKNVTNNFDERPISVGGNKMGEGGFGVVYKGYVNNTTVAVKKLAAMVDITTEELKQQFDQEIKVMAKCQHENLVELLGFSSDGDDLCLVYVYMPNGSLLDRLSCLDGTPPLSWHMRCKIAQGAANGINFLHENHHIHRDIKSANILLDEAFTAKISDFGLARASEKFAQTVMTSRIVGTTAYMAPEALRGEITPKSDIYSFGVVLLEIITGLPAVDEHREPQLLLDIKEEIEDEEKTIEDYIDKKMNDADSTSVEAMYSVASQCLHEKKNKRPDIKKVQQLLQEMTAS

In the case of `CC(=O)N1CCCC(n2cc(-c3cnc(-n4ncc5cc(C#N)cnc54)cc3NC(C)C)nn2)C1` (stereo not drawn) [Example 161, 1-(5-(1-(1-acetylpiperidin-3-yl)-1H-1,2,3-triazol-4-yl)-4-(isopropylamino)pyridin-2-yl)-1H-pyrazolo[3,4-b]pyridine-5-carbonitrile], it took 250 nM to reach a half-maximal effect in data set [1] (EC50). Besides, the “Caco-2 Permeability” value in data set [2] amounted to 3.5 ×10⁻⁶ cm/s. For the same molecule, the IC50 in data set [3] turned out to be 2 nM.

`CC(C)Nc1cc(-n2ncc3cc(C#N)cnc32)ncc1-c1cn(C2CCOC2)nn1` (stereo not drawn) [Example 215, 1-(4-(isopropylamino)-5-(1-(tetrahydrofuran-3-yl)-1H-1,2,3-triazol-4-yl)pyridin-2-yl)-1H-pyrazolo[3,4-b]pyridine-5-carbonitrile]: in data set [1], the EC50 was 1310 nM. In addition, the “Caco-2 Permeability” value in data set [2] was 10.4 ×10⁻⁶ cm/s. For the same molecule, the IC50 in data set [3] turned out to be 8 nM.

Consider `CC(=O)N1CCC[C@@H](c2cc(-c3cnc(-n4ncc5cc(C#N)cnc54)cc3NC(C)C)on2)C1` [Example 409, (R)-1-(5-(3-(1-acetylpiperidin-3-yl)isoxazol-5-yl)-4-(isopropylamino)pyridin-2-yl)-1H-pyrazolo[3,4-b]pyridine-5-carbonitrile], for which, in data set [1], the response was half-maximal at 470 nM (EC50). Also, in data set [2], the “Caco-2 Permeability” value amounted to 30.2 ×10⁻⁶ cm/s. In addition, the IC50 in data set [3] worked out at 2 nM.

`CC(C)Nc1cc(-n2ncc3cc(C#N)cnc32)ncc1-c1cc(C2CCCCN2)no1` [Example 413, (S)-1-(4-(isopropylamino)-5-(3-(piperidin-2-yl)isoxazol-5-yl)pyridin-2-yl)-1H-pyrazolo[3,4-b]pyridine-5-carbonitrile]: the 50% effective concentration (EC50) in data set [1] turned out to be 300 nM. Also, the “Caco-2 Permeability” value in data set [2] is 13.9 ×10⁻⁶ cm/s. The IC50 in data set [3] is 5 nM.

As to `CCNc1cc(-n2ncc3cc(C#N)cnc32)ncc1C1=NOC(CCC(C)(C)O)C1` (stereo not drawn) [Example 441, 1-(4-(ethylamino)-5-(5-(3-hydroxy-3-methylbutyl)-4,5-dihydroisoxazol-3-yl)pyridin-2-yl)-1H-pyrazolo[3,4-b]pyridine-5-carbonitrile], in data set [1], the EC50 worked out at 260 nM. Besides, the “Caco-2 Permeability” value in data set [2] turned out to be 31.7 ×10⁻⁶ cm/s. The IC50 in data set [3] is 2 nM.
